Like-named read-outs stand apart in the source and are kept apart here.
How the values were obtained:
expanded OPCs = test: cells; conditions: for viability at 0.1 µM / viability at 1 µM / viability at 10 µM: Rattus norvegicus, 72 h; for 0.1 µM (% DMSO) / 1 µM (% DMSO) / 10 µM (% DMSO): alamarBlue viability of expanded OPCs, relative to DMSO control; for 0.1 µM (% DMSO): compound at 0.1 µM; for 1 µM (% DMSO): compound at 1 µM; for 10 µM (% DMSO): compound at 10 µM
Outline: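 Toxicity screen: compounds added at 0.1, 1 and 10 µM to PDGF-AA-expanded OPCs in 96-well plates, 3-day incubation at 37 °C, 10% CO2, then alamarBlue 1:10 for 4 h with fluorescence readout. Results set screening doses of 10/2, 2/0.4 or 0.4/0.08 µM.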

[1] = tested on: acutely dissociated and purified rat OPCs; test: Acute OL differentiation assay (MBP expression/cell, immunofluorescent image quantification); format: cell-based
Outline: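 This acute differentiation assay used purified rat OPCs from postnatal day 6–7 pups, seeded into PDL/laminin-coated 96-well plates in differentiation medium lacking PDGF and FGF. Compounds were applied in quadruplicate after a 1–2 h preincubation at 37 °C, 10 % CO2, with 0.1 % DMSO negative and 40 ng/ml T3 positive controls in eight wells. After fixation on DIV4, anti-MBP immunofluorescence images yielded MBP expression/cell.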

[2] = read-out: 0.1 µM (% DMSO), alamarBlue viability, NCC library compound at 0.1 µM, sheet "All Tox data"
[3] = read-out: 1 µM (% DMSO), alamarBlue viability, NCC library compound at 1 µM, sheet "All Tox data"
[4] = read-out: 10 µM (% DMSO), alamarBlue viability, NCC library compound at 10 µM, sheet "All Tox data"
[5] = Rattus norvegicus, 2 uM test compound, relative to quetiapine, sheet "All OLga data", read-out: OL differentiation, 2 uM (% Quet)
[6] = Rattus norvegicus, 10 uM test compound, relative to quetiapine, sheet "All OLga data", read-out: OL differentiation, 10 uM (% Quet)
[7] = Rattus norvegicus, test compound at 0.4 uM, NCC library screen, sheet "All OLga data", relative to quetiapine, read-out: 0.4 uM (% Quet)
[8] = Rattus norvegicus, test compound at 2 uM, NCC library screen, sheet "All OLga data", relative to quetiapine, read-out: 2 uM (% Quet)
[9] = test compound at 2 uM, MBP expression relative to quetiapine, NCC library screen, sheet "All OLga data"
[10] = test compound at 10 uM, MBP expression relative to quetiapine, NCC library screen, sheet "All OLga data"
[11] = Rattus norvegicus, test compound at 10 uM, NCC library screen, sheet "All OLga data", relative to quetiapine, read-out: 10 uM (% Quet)
[12] = read-out: 0.1 µM (% DMSO), alamarBlue viability of expanded OPCs, compound at 0.1 µM, sheet All Tox data
[13] = read-out: 1 µM (% DMSO), alamarBlue viability of expanded OPCs, compound at 1 µM, sheet All Tox data
[14] = read-out: 10 µM (% DMSO), alamarBlue viability of expanded OPCs, compound at 10 µM, sheet All Tox data
[15] = Rattus norvegicus, test compound at 2 uM, MBP expression relative to quetiapine, NCC library screen, sheet "All OLga data", read-out: 2 uM (% Quet)
[16] = Rattus norvegicus, test compound at 10 uM, MBP expression relative to quetiapine, NCC library screen, sheet "All OLga data", read-out: 10 uM (% Quet)
[17] = Rattus norvegicus, 0.4 uM test compound, relative to quetiapine, sheet "All OLga data", read-out: OL differentiation, 0.4 uM (% Quet)

Row | Compound | viability at 0.1 µM (expanded OPCs; [2]) [%] | viability at 1 µM (expanded OPCs; [3]) [%] | viability at 10 µM (expanded OPCs; [4]) [%] | 0.1 µM (% DMSO) (expanded OPCs) | 1 µM (% DMSO) (expanded OPCs) | 10 µM (% DMSO) (expanded OPCs) | activation at 2 µM [1, 8] [%] | activation at 10 µM [1, 11] [%] | other results
1 | C[N+]1(C)CCN(c2ccccc2)CC1 [DMPP, dimethylphenylpiperazinium, reference compound] | 101 | 89.5 | 111 | – | – | – | – | – | activation at 2 µM [1, 5]: 40.6%; activation at 10 µM [1, 6]: 54.3%; EC50 ([1]; Rattus norvegicus, average EC50 for induction of OL differentiation from independent biological replicates, eight concentrations): 13 µM; hit in OL differentiation assay, MRF-TMC ([1]; ● = confirmed hit in this paper's assay): ●
2 | C#C[C@]1(O)CC[C@H]2[C@@H]3CCC4=Cc5oncc5C[C@]4(C)[C@H]3CC[C@@]21C [Danazol] | – | – | – | 95.3 | 92.4 | 47.1 | 24.1 | – | activation at 0.4 µM [1, 7]: 9.4%
3 | O.O.O=C1N=C([O-])CN1/N=C/c1ccc(-c2ccc([N+](=O)[O-])cc2)o1.[Na+] [Dantrolene sodium salt dihydrate] | – | – | – | 93.5 | 100.3 | 91.7 | – | – | 2 uM (% Quet) [1, 9]: -16.0 % Quet; 10 uM (% Quet) [1, 10]: -55.0 % Quet
4 | Nc1ccc(S(=O)(=O)c2ccc(N)cc2)cc1 [Dapsone] | – | – | – | 101.9 | 96.3 | 99.0 | -13.2 | -22.2 | –
5 | Cc1c(O)c(=O)ccn1C [Deferiprone] | – | – | – | – | – | – | – | – | viability at 0.1 µM (expanded OPCs; [12]): 91.3%; viability at 1 µM (expanded OPCs; [13]): 90.1%; viability at 10 µM (expanded OPCs; [14]): 84.8%; activation at 2 µM [1, 5]: 6.6%; activation at 10 µM [1, 6]: 37.1%
6 | C[C@H](CCC(=O)O)[C@H]1CC[C@H]2[C@@H]3C(=O)C[C@@H]4CC(=O)CC[C@]4(C)[C@H]3CC(=O)[C@]12C [Dehydrocholic Acid] | 101 | 106 | 109 | – | – | – | -12.3 | -5.3 | –
7 | C[C@]12CC[C@H](O)CC1=CC[C@@H]1[C@@H]2CC[C@]2(C)C(=O)CC[C@@H]12 [Dehydroepiandrosterone] | 92 | 87.5 | 83.1 | – | – | – | -23.8 | -57.9 | –
8 | CN(C)[C@@H]1C(O)=C(C(N)=O)C(=O)[C@@]2(O)C(O)=C3C(=O)c4c(O)ccc(Cl)c4[C@@H](O)[C@H]3C[C@@H]12 [Demeclocycline] | 96.3 | 90.6 | 88.4 | – | – | – | -7.5 | -21 | –
9 | CNCCCN1c2ccccc2CCc2ccccc21 [Desipramine] | – | – | – | 75.5 | 43.8 | 16.4 | – | – | activation at 0.08 µM ([1]; Rattus norvegicus, test compound at 0.08 uM, MBP expression relative to quetiapine, NCC library screen, sheet "All OLga data", read-out: 0.08 uM (% Quet)): 8.9%; activation at 0.4 µM ([1]; Rattus norvegicus, test compound at 0.4 uM, MBP expression relative to quetiapine, NCC library screen, sheet "All OLga data", read-out: 0.4 uM (% Quet)): -5.3%
10 | Clc1ccc2c(c1)CCc1cccnc1C2=C1CCNCC1 [Desloratadine] | 61 | 29 | 10.5 | – | – | – | – | – | activation at 0.08 µM ([1]; Rattus norvegicus, test compound at 0.08 uM, NCC library screen, sheet "All OLga data", relative to quetiapine, read-out: 0.08 uM (% Quet)): -28%; activation at 0.4 µM [1, 7]: -84.8%
11 | C[C@@H]1C[C@H]2[C@@H]3CCC4=CC(=O)C=C[C@]4(C)[C@@]3(F)[C@@H](O)C[C@]2(C)[C@H]1C(=O)CO [Desoximetasone] | 111 | 114 | 111 | – | – | – | -17.9 | -33 | –
12 | C[C@@H]1C[C@H]2[C@@H]3CCC4=CC(=O)C=C[C@]4(C)[C@@]3(F)[C@@H](O)C[C@]2(C)[C@@]1(O)C(=O)CO [Dexamethasone] | – | – | – | 108.6 | 109.4 | 109.8 | – | – | activation at 2 µM [1, 15]: 1.1%; activation at 10 µM [1, 16]: -24.5%
13 | C[C@@H]1C[C@H]2[C@@H]3CCC4=CC(=O)C=C[C@]4(C)[C@@]3(F)[C@@H](O)C[C@]2(C)[C@@]1(O)C(=O)CO [Dexamethazone] | – | – | – | 115.8 | 108.1 | 98.4 | – | – | 2 uM (% Quet) [1, 9]: -1.3 % Quet; 10 uM (% Quet) [1, 10]: -8.3 % Quet
14 | COc1ccc2c(c1)[C@]13CCCC[C@@H]1[C@H](C2)N(C)CC3 [Dextromethorphan] | – | – | – | – | – | – | – | – | viability at 0.1 µM (expanded OPCs; [12]): 82.6%; viability at 1 µM (expanded OPCs; [13]): 86.9%; viability at 10 µM (expanded OPCs; [14]): 59.6%; activation at 0.4 µM [1, 17]: 10.5%; activation at 2 µM [1, 5]: 44.5%
15 | CN1C(=O)CN=C(c2ccccc2)c2cc(Cl)ccc21 [Diazepam] | – | – | – | – | – | – | – | – | viability at 0.1 µM (expanded OPCs; read-out: 0.1 µM (% DMSO)): 92.5%; viability at 1 µM (expanded OPCs; read-out: 1 µM (% DMSO)): 97.2%; viability at 10 µM (expanded OPCs; read-out: 10 µM (% DMSO)): 102%; activation at 2 µM ([1]; Rattus norvegicus, read-out: 2 uM (% Quet)): 3.8%; activation at 10 µM ([1]; Rattus norvegicus, read-out: 10 uM (% Quet)): -14.1%
16 | CC1=NS(=O)(=O)c2cc(Cl)ccc2N1 [Diazoxide] | 98.9 | 86.5 | 82.6 | – | – | – | -1.9 | -7.1 | –
17 | O=C(O)C(Cl)Cl [Dichloroacetic Acid] | 99.2 | 83.6 | 83.5 | – | – | – | 0.66 | 13.7 | –
18 | O=C(O)Cc1ccccc1Nc1c(Cl)cccc1Cl [Diclofenac] | – | – | – | – | – | – | – | – | viability at 0.1 µM (expanded OPCs; [12]): 90.1%; viability at 1 µM (expanded OPCs; [13]): 95.5%; viability at 10 µM (expanded OPCs; [14]): 88.8%; activation at 2 µM [1, 5]: 4.8%; activation at 10 µM [1, 6]: 3.4%
19 | Cc1onc(-c2c(Cl)cccc2Cl)c1C(=O)N[C@@H]1C(=O)N2[C@@H]1SC(C)(C)[C@@H]2C(=O)O [Dicloxacillin] | – | – | – | 93.5 | 91.4 | 76.5 | – | – | activation at 2 µM [1, 15]: -0.7%; activation at 10 µM [1, 16]: -16.9%
20 | CCN(CC)CCOC(=O)C1(C2CCCCC2)CCCCC1 [Dicyclomine] | – | – | – | 99.8 | 87.7 | 52.8 | 32.1 | – | activation at 0.4 µM [1, 7]: -5.5%
21 | O=C(O)c1cc(-c2ccc(F)cc2F)ccc1O [Diflunisal] | – | – | – | 94.0 | 92.0 | 35.0 | 5.6 | – | activation at 0.4 µM [1, 7]: 0.3%
22 | C[C@H]1O[C@@H](O[C@H]2[C@@H](O)C[C@H](O[C@H]3[C@@H](O)C[C@H](O[C@H]4CC[C@@]5(C)[C@H](CC[C@@H]6[C@@H]5C[C@@H](O)[C@]5(C)[C@@H](C7=CC(=O)OC7)CC[C@]65O)C4)O[C@@H]3C)O[C@@H]2C)C[C@H](O)[C@@H]1O [Digoxin] | 103 | 99.8 | 106 | – | – | – | -10.3 | 22.8 | –
23 | COc1ccc([C@@H]2Sc3ccccc3N(CCN(C)C)C(=O)[C@@H]2OC(C)=O)cc1 [Diltiazem] | – | – | – | 81.4 | 67.2 | 48.7 | -2.4 | – | activation at 0.4 µM [1, 7]: -12.2%
24 | CN(C)CCOC(c1ccccc1)c1ccccc1 [Diphenhydramine] | – | – | – | – | – | – | – | – | viability at 0.1 µM (expanded OPCs; [12]): 79.3%; viability at 1 µM (expanded OPCs; [13]): 80%; viability at 10 µM (expanded OPCs; [14]): 62.4%; activation at 2 µM [1, 5]: 3.5%; activation at 10 µM [1, 6]: 30%
25 | CCOC(=O)C1(c2ccccc2)CCN(CCC(C#N)(c2ccccc2)c2ccccc2)CC1 [Diphenoxylate] | 85.6 | 27.7 | 23.2 | – | – | – | – | – | activation at 0.08 µM ([1]; Rattus norvegicus, 0.08 uM test compound, relative to quetiapine, sheet "All OLga data", read-out: OL differentiation, 0.08 uM (% Quet)): -3.7%; activation at 0.4 µM [1, 17]: 12%
26 | O=c1c(-c2ccccc2)c1-c1ccccc1 [Diphenylcyclopropenone] | – | – | – | – | – | – | – | – | viability at 0.1 µM (expanded OPCs; [12]): 73.9%; viability at 1 µM (expanded OPCs; [13]): 65%; viability at 10 µM (expanded OPCs; [14]): 11.7%; activation at 0.4 µM [1, 17]: 8.6%

From PMC5011342, “A high throughput drug screening assay to identify compounds that promote oligodendrocyte differentiation using acutely dissociated and purified oligodendrocyte precursor cells” (BMC Research Notes, 2016)
